Publication PMC6222706, “Evaluation of the Antioxidant and Neuroprotectant Activities of New Asymmetrical 1,3-Diketones” (Molecules : A Journal of Synthetic Chemistry and Natural …, 2018)
In brackets after ≈: the same amount, converted by molar mass.

Legend:
[1] = ABTS radical scavenging assay; format: biochemical; details: for IC50: 30 min incubation, EtOH, absorbance at 734 nm; for ABTS-TEAC100: Trolox Equivalent Antioxidant Capacity vs 100 µM solution of the substance, from ABTS assay
Method: ABTS^+ radical was produced by reacting 2,2′-azino-bis-3-ethylbenzthiazoline-6-sulphonic acid (ABTS) 7 mM with K2S2O8 2.45 mM, both reactants dissolved in water, and at the volume ratio of 1:1. The mixture was stored in the dark at room temperature for 16 h. The ABTS^+ solution was diluted to give an absorbance of 0.750 ± 0.025 at 734 nm in EtOH. All the compounds tested were dissolved in EtOH. 150 µL of each compound solution was added to the wells of the 96-well plate, followed by the addition of 50 µL of the ABTS^+ radical solution. Final compound concentrations tested were 0, 5, 10, 20, 50, 100, 150, 200 µM. The absorbance change at 734 nm was recorded after 30 min incubation in the dark, and the percentage of radical scavenging was calculated for each concentration relative to a blank containing no scavenger. The degree of decolorization was calculated as the percentage reduction of absorbance. The ABTS^+ radical scavenging activity was calculated as follows: Percentage ABTS^+ radical scavenging activity = {1 − [As/Ac]} × 100(1) where As is the absorbance of the ABTS^+ radical solution containing samples and Ac the absorbance of the control solution without antioxidant. The percentages of ABTS^+ radical reduced were plotted against compound concentration. Trolox was used as a reference antioxidant. All the assays were carried out three times by quadruplicate for each compound.

[2] = FRAP (Ferric Reducing Antioxidant Power) assay; format: biochemical; details: for FRAP-TEAC100: Trolox Equivalent Antioxidant Capacity vs 100 µM solution of the substance, from FRAP assay; for FRAP Assay (%) at 100 µM / FRAP Assay (%) at 200 µM: 30 min, 593 nm
Method: The assay was carried out according to the method of Benzie et al. with slight modifications, in a 96-well microplate. FRAP reagent was prepared by mixing 10 mL of 300 mM acetate buffer with 1 mL of 10 mM 2,4,6-tripyridyl-S-triazine (TPTZ) in HCl 40 mM and 1mL of FeCl3·6H2O 20 mM. Firstly, 190 µL of the FRAP reagent were added to all wells of the 96-well plate, followed by the addition to the well of 10 µL of the test compounds dissolved in Ethanol to reach the final concentrations assayed (0, 5, 10, 20, 50, 100, 150, 200 µM). After 30 min incubation in the dark, the absorbance was read at 593 nm. Trolox was used as assay control. Three different assays were carried out by quadruplicate for each compound.

[3] = DPPH radical scavenging assay; format: biochemical; details: antioxidant concentration that decreases initial DPPH^• concentration by 50%; 30 min, 517 nm
Method: The assay was performed in a 96-well microplate. A 0.2 mM solution of 2,2-diphenyl-1-picryl-hydrazyl-hydrate (DPPH) in ethanol was prepared. All the compounds tested were dissolved in EtOH. Firstly, 150 µL of each compound solution was added to the wells of the 96-well plate, followed by the addition of 50 µL of the DPPH solution. Final compound concentrations tested were 0, 5, 10, 20, 50, 100, 150, 200 µM. The change in absorbance at 517 nm was measured after 30 min incubation in the dark. The free radical scavenging activity was calculated as inhibition using the following Equation (2): Percentage DPPH radical scavenging activity = {1 − [As/Ac]} × 100(2) where As is the absorbance of the DPPH solution containing samples and Ac the absorbance of the control solution without antioxidant but with DPPH. The percentages of DPPH reduced were plotted against compound concentration. The experiment was also conducted using Trolox as reference antioxidant. Assays were performed three times by quadruplicate for each compound.

[4] = Cytotoxicity in SH-SY5Y cells (MTT); format: cell-based; details: human, SH-SY5Y neuronal cells, concentration reducing cell viability to 50% of control
Method: So, to study the neuroprotectant potential of β-diketones in the SH-SY5Y cell line, we firstly need to determine their cytotoxicity in the same cellular model. […] In addition to that, within each series, the introduction of a second fluorine atom in the left-hand side phenyl ring decreases also the cytotoxicity.
SH-SY5Y cells were seeded into 96-well plates at a density of 5 × 10^3 cells/well and grown in the incubator for 24 h. All compounds tested were dissolved and eventually further diluted in dimethylsulfoxide (DMSO). After overnight incubation, the cells were treated with different test concentrations (5, 10, 20, 50, 100, 150, 200 µM) in a final volume of 200 µL with four replicates each. […] Cell proliferation or viability was measured using the 3-(4,5-dimethylthiazol-2-yl)-2,5-diphenyl tetrazolium bromide (MTT) assay. After 24 h, 20 µL of MTT (5 mg/mL) was added to each well and the plate was incubated at 37 °C in the dark for 2 h. Supernatants were removed and the formazan crystals were solubilized in DMSO (200 µL/well), under 10 min shaking at room temperature. The reduction of MTT was quantified by absorbance at 570 nm Varioskan microplate reader (Thermo Fisher Scientific, Vantaa, Finland). Effects of the test compounds on cell viability were calculated using cells treated with vehicle as control. The data were subjected to linear regression analysis and the regression lines were plotted for the best fit. The IC50 (inhibition of cell viability) concentrations were calculated using the respective dose-response curves.

[5] = test system: SH-SY5Y cells; experiment: Mitochondrial membrane potential (JC-1, microplate reader) in SH-SY5Y cells under H2O2; format: cell-based, human; details: SH-SY5Y exposed to 200 µM H2O2 for 24 h, no compound
Method: To know whether β-diketones 6b and 7b will protect the mitochondrial membrane from depolarization under oxidative stress conditions, MMP experiments were carried out with the cationic dye JC-1 (5,5′,6,6′-tetrachloro-1,1′,3,3′-tetraethylbenzimi-dazolylcarbocyanine iodide). JC-1 enters selectively into mitochondria and reversibly change color from red to green as the membrane potential decrease. In healthy cells, JC-1 forms red fluorescent J-aggregates while in apoptotic cells with low MMP, JC-1 remains as monomers with green fluorescence. The ratio of J-aggregates to J-monomers is an indication of healthy non-apoptotic cells.
The fluorescent dye 5,5′,6,6′-tetrachloro-1,1′,3,3′-tetraethylbenzimidazolylcarbocyanine iodide (JC-1) was used for measuring MMP [111]. A decrease in fluorescence intensity represents mitochondrial membrane depolarization. For fluorescence ratio detection under oxidative stress conditions, 96 well plates were seeded with 3 × 10^3 SH-SY5Y cells and after 24 h incubation they were treated with test compound and left out for 24 h. Then, cells were exposed to different H2O2 concentrations for 24 h. After the incubation period, cells were washed twice with Hanks buffer and then stained with 5 µM JC-1 in culture media in dark, in a CO2 incubator at 37 °C for 20 min. At the end of the dye incubation period, cells were washed three times with Hanks buffer and 200 µL of fresh buffer was added. Cells were analyzed with a Varioskan microplate reader. J-aggregates red fluorescence intensity was measured at 535 nm excitation and 595 nm emission wavelength, while excitation at 485 nm and emission 535 nm wavelength was used for J-monomers green fluorescence. Results were expressed as the ratio of fluorescence intensity of J-aggregates to J-monomers. […] JC-1 aggregates show red fluorescence (peak emission at 590 nm) measured in the FL2 channel. Thus, healthy non-apoptotic cells are detected in both FL1 and FL2 channels, while cells with disrupted mitochondrial function show fluorescence in FL1 channel but reduced FL2 intensity.

[6] = test system: SH-SY5Y cells; experiment: Mitochondrial membrane potential by flow cytometry (JC-1) in SH-SY5Y cells under H2O2; format: cell-based, human; details: 400 µM H2O2, no compound
Method: To confirm this MMP recovery results, flow cytometry experiments were carried out with compound 7b and SH-SY5Y cells. Cells were treated with 7b for 24 h and then were exposed to 400 µM H2O2 for 4 h. JC-1 was used as fluorescence indicator of MMP state. In flow cytometry studies of MMP, JC-1 is excited at 488 nm wavelength. Both JC-1 aggregates and monomers show green fluorescence (peak emission at 527 nm) measured in the FL1 channel. […] Thus, healthy non-apoptotic cells are detected in both FL1 and FL2 channels, while cells with disrupted mitochondrial function show fluorescence in FL1 channel but reduced FL2 intensity. […] From these flow cytometry experiments, we can confirm that after compound 7b treatment there is a significant MMP recovery in SH-SY5Y cells under oxidative stress pressure.
For MMP flow cytometry studies, 10^5 SH-SY5Y cells were seeded in 6 well plates. After 24 h, cells were treated with test compound and incubated for other 24 h. After the treatment period, cells were exposed to H2O2 for 4 h. Then, cells were washed twice with Hanks buffer and stained with 5 µM JC-1 in culture media in dark, in a CO2 incubator at 37 °C for 20 min. After the staining period, cells were washed three times with Hanks buffer, collected and resuspended in 500 µL culture media. Data were obtained and analyzed using an Accuri C6 flow cytometer (BD Biosciences, Ann Arbour, MI, USA). […]

[7] = test system: SH-SY5Y cells; details: read-out: H2O2 lethal dose (EC50; LD50), 24 h incubation, cell viability 50% of the control
Method: To test our work hypothesis, neuroprotection studies were carried out with β-diketones 6b and 7b in the SH-SY5Y cell line under oxidative stress conditions.

[8] = Kinetic solubility by UV spectrometry in 10 mM PBS; format: physicochemical; details: 10 mM phosphate buffered saline, aqueous buffer, kinetic from dmso stock
Method: Among the most important physicochemical parameters in drug-discovery, solubility and chemical stability in aqueous media are the determinants for non-toxic and brain-permeable drug-like compounds with good bioavailability. So, compounds with good aqueous solubility are the best candidates for drug-discovery progression. […] The assays were performed at room temperature, in 10 mM Phosphate Buffered Saline (PBS) from compound stocks in DMSO at 20 mM concentration.
A modified protocol was used from that described by Hoelke et al. for the determination of the kinetic solubility from DMSO compound solutions. A compound calibration curve (compound concentration vs. UV absorption) was prepared on a 48 well plate for each compound with concentrations in the range of 10 µM to […]. Each compound dilution was carried out by pipetting defined volumes of a 20 mM stock compound solution in DMSO into the wells and adding PBS 10 mM to reach a final volume of 500 µL/well. The final amount of DMSO per well was 2%. For the lower compound concentrations, an additional volume of DMSO was added into each well to reach the 2% of DMSO. Then, 200 µL of each dilution was transferred to a new 96 well plate for the measurement of the UV-spectra. One well in each row was left without compound as a blank and its UV absorbance was used as an offset correction. The experiments were carried out by duplicate.
(§1) In parallel compound saturation solutions were obtained and filtered from 20 mM compound stock in DMSO. So, 10 µL of 20 mM stock solution were dispensed to 190 µL of PBS 10 mM. The solutions were mixed, shaken in a microplate shaker for two hours, and then 160 µL of each solution were filtered and transferred to a new well plate for UV absorption measure. The compound stability in PBS 10 mM was determined at 24, 48 and 72 h with solutions prepared as those for the compound calibration curve.
Measurement of the UV-spectra was performed using a Varioskan microplate reader and spectra were taken in the range of 270–600 nm. Spectral bandwidth was set to 5 nm and the data pint interval was 10 nm. […]

[9] = Chemical stability in 10 mM PBS; format: physicochemical; details: 6b, 7b at 400 µM, curcumin at 50 µM
Method: It is also important to know compound integrity at those concentrations used in biological assays, and for that, the chemical stability was determined in 10 mM PBS after 6 h, 24 h and 48 h.
as §1

[10] = test system: SH-SY5Y cells; experiment: SH-SY5Y neuroprotection assay against H2O2 (MTT); format: cell-based, human; details: compound 5-50 µM for 24 h, then 200 µM H2O2 for 24 h
Method: For neuroprotection experiments, SH-SY5Y cells were treated with test compound at different concentrations (5, 10, 20, 30, 40, and 50 µM) for 24 h. After the incubation period, cells were exposed to H2O2 200 µM for 24 h. At the end of the treatment, cell viability was measure with MTT.
Compound neuroprotection under H2O2-induced oxidative stress was assessed by MTT assay. Briefly, SH-SY5Y were seeded into 96-well plates at a density of 3 × 10^3 cells/well and grown in the incubator for 24 h. Cells were pretreated for 24 h with different compound concentrations (5, 10, 20, 30, 40, 50 µM). After the treatment period, cells were exposed to 200 µM H2O2 for 24 h. Cell viability was measured with MTT following the same procedure described above. Cell viability was expressed as the percentage of the control value (cells without treatment with H2O2).

IC50 [1] [µM] | IC50 [3] [µM] | melting point [°C] | SMILES | ABTS-TEAC100 [1] | FRAP-TEAC100 [2] | FRAP Assay (%) at 100 µM [2] [%] | FRAP Assay (%) at 200 µM [2] [%] | IC50 at 24 h [4] [µM] | MMP reduction [5] | Increase in the FLA-1/FLA-2 ratio [6] [fold] | EC50 [7] [µM] | solubility at 2 h [8] [µg/mL] | Remaining Compound (%) 0 h ([9]; 0 h) [%] | Remaining Compound (%) 6 h ([9]; 6 h) [%] | Remaining Compound (%) 24 h ([9]; 24 h) [%] | Remaining Compound (%) 48 h ([9]; 48 h) [%] | Cell viability after H2O2 (neuroprotection) [10]
50.5 ± 2 | 42.3 ± 3.4 | 159.9 | COc1cc(/C=C/C(O)=C/C(=O)c2ccccc2)ccc1O [Compound 1a, (2Z,4E)-3-Hydroxy-5-(4-hydroxy-3-methoxyphenyl)-1-phenylpenta-2,4-dien-1-one] | 0.88 | 0.59 | 32.2 | 55.7 | 104 ± 6.7 |  |  |  |  |  |  |  |  | 
79.6 ± 4.3 |  | 179.3 | O=C(/C=C(O)/C=C/c1ccc(O)c(F)c1F)c1ccccc1 [Compound 7a, (2Z,4E)-5-(2,3-Difluoro-4-hydroxyphenyl)-3-hydroxy-1-phenylpenta-2,4-dien-1-one] | 0.69 | 0.22 | 14.0 | 20.7 | 126 ± 8 |  |  |  |  |  |  |  |  | 
 |  |  | OO [Compound H2O2, hydrogen peroxide, reference compound] |  |  |  |  |  | about 62% | 2 | 200 |  |  |  |  |  | 
 |  |  | COc1cc(/C=C/C(=O)CC(=O)/C=C/c2ccc(O)c(OC)c2)ccc1O [Curcumin, reference compound] |  |  |  |  | 48.8 ± 5.1 |  |  |  | 24 ± 3 (≈ 65.1 µM) | 100 | 55.9 ± 10.6 | 42.9 ± 9.0 | 38.1 ± 7.4 | slight protection
